The structures appear in SMILES notation. Where only a bound is given, the exact number is not on record here.

Assay [1] concerns Cavia porcellus. The assay can be described thus: Ex vivo inhibition of collagen-induced platelet aggregation in guinea pig after i.v. administration. The class given is functional. Conditions: iv.
The subject of assay [2] is Cavia porcellus. Description: Ex vivo inhibition of collagen-induced platelet aggregation in guinea pig after p.o. administration.
For assay [3], the system named is Monkey. The assay can be described thus: Ex vivo inhibition of collagen-induced platelet aggregation in cynomolgus monkey after p.o. administration. The class given is functional. The following applies: Cercopithecidae, in Macaca fascicularis, po.
For assay [4], the system named is Monkey. Description: Ex vivo inhibition of collagen-induced platelet aggregation in cynomolgus monkey after i.v. administration. The class given is functional. Conditions: Cercopithecidae, in Macaca fascicularis, iv.

As for `CCOC(=O)CN1CCN(CC2CN(c3ccc(C(=N)NC(=O)c4cccnc4)cc3)C(=O)O2)CC1` (configuration not stated), in the assay with Cavia porcellus [1], the 50% effect level (ED50) was put at a dose of 1 mg/kg.

Take `N/C(=N/C(=O)c1ccccc1)c1ccc(N2C[C@@H](CN3CCN(CC(=O)O)CC3)OC2=O)cc1`: the ED50 – broadly, the midpoint of the dose-response relation – in the assay with Cavia porcellus [2] was > 10 mg/kg.

`COC(=O)CN1CCN(C[C@@H]2CN(c3ccc(C(=N)NC(=O)OC)cc3)C(=O)O2)CC1`: the ED50 came to 0.8 mg/kg in the assay with Monkey [3] and 0.1 mg/kg in the assay on Cavia porcellus [2].

`CCOC(=O)CN1CCN(C[C@@H]2CN(c3ccc(C(=N)NC(=O)C(C)C)cc3)C(=O)O2)CC1`: the values for the 50% effective dose (ED50) in the assay on Monkey [3] and in the assay with Cavia porcellus [2] were 1.3 mg/kg and 0.4 mg/kg, respectively.

For `CCOC(=O)CN1CCN(C[C@@H]2CN(c3ccc(C(=N)NC(=O)c4cccc(C(F)(F)F)c4)cc3)C(=O)O2)CC1`, the figures for the ED50 in the assay on Monkey [3] and with Cavia porcellus [2] were > 1 mg/kg and < 1 mg/kg, respectively.

`CC(C)(C)OC(=O)CN1CCN(C[C@@H]2CN(c3ccc(C(=N)N)cc3)C(=O)O2)CC1` gave an ED50 with Cavia porcellus [1] of 1 mg/kg.

As to `CC(C)(C)OC(=O)CCN1CCN(CC2CN(c3ccc(C(=N)NC(=O)c4ccccc4)cc3)C(=O)O2)CC1` (configuration not stated), the ED50 in the assay on Cavia porcellus [2] was > 10 mg/kg.

`CCOC(=O)CN1CCN(C[C@@H]2CN(c3ccc(C(=N)NC(=O)OC)cc3)C(=O)O2)CC1` [GANTOFIBAN]: the median effective dose (ED50) is 0.5 mg/kg in the assay on Monkey [4], 0.07 mg/kg in the assay with Monkey [3] and 0.2 mg/kg with Cavia porcellus [2].

With `CCOC(=O)CN1CCN(CC2CN(c3ccc(C(=N)NC(=O)c4ccco4)cc3)C(=O)O2)CC1` (configuration not stated), the median effective dose (ED50) with Monkey [3] was > 1 mg/kg; with Cavia porcellus [2] it was < 1 mg/kg.

As for `CCOC(=O)CN1CCN(C[C@@H]2CN(c3ccc(C(=N)NC(=O)OCC)cc3)C(=O)O2)CC1`, the ED50 in the assay on Monkey [3] is 0.7 mg/kg; with Cavia porcellus [2], 0.17 mg/kg.

As to `CCOC(=O)C1CCN(CC2CN(c3ccc(C(=N)NC(=O)c4ccccc4)cc3)C(=O)O2)CC1` (configuration not stated), it took a dose of 10 mg/kg to reach the 50% effect level in the assay on Cavia porcellus [2] (ED50).

`CCOC(=O)CN1CCN(C[C@@H]2CN(c3ccc(C(=N)NC(=O)c4ccccc4)cc3)C(=O)O2)CC1`: the median effective dose (ED50) stood at 0.09 mg/kg with Cavia porcellus [1], 0.13 mg/kg with Monkey [4], 1.3 mg/kg in the assay on Monkey [3] and 0.32 mg/kg in the assay on Cavia porcellus [2].

On to `COC(=O)/N=C(/N)c1ccc(N2CC(CN3CCN(CC(=O)OC(C)(C)C)CC3)OC2=O)cc1` (configuration not stated), for which, in the assay with Cavia porcellus [2], the median effective dose (ED50) was > 1 mg/kg.

Regarding `CCOC(=O)CCN1CCN(C[C@H]2CN(c3ccc(C(=N)NC(=O)c4ccccc4)cc3)C(=O)O2)CC1`, in the assay with Cavia porcellus [2], the median effective dose (ED50) was > 10 mg/kg.

As to `CCOC(=O)CN1CCN(C[C@@H]2CN(c3ccc(C(=N)N)cc3)C(=O)O2)CC1`, the ED50 in the assay on Cavia porcellus [1] is 0.08 mg/kg; with Cavia porcellus [2] it was > 1 mg/kg.

Consider `CCOC(=O)CCN1CCN(CC2CN(c3ccc(C(=N)NC(=O)OC)cc3)C(=O)O2)CC1` (configuration not stated), for which the ED50 in the assay with Cavia porcellus [2] is > 10 mg/kg.

`CCOC(=O)CN1CCN(CC2CN(c3ccc(C(=N)NC(=O)Oc4ccccc4)cc3)C(=O)O2)CC1` (configuration not stated) showed a 50% effective dose (ED50) in the assay on Cavia porcellus [2] of 0.2 mg/kg.

Regarding `CCOC(=O)CN1CCN(CC2CN(c3ccc(C(=N)NC(=O)OC)cc3)C(=O)O2)CC1` (configuration not stated), the ED50 with Cavia porcellus [1] and with Cavia porcellus [2] was 0.4 mg/kg throughout.

`CCOC(=O)CCN1CCN(C[C@@H]2CN(c3ccc(C(=N)NC(=O)c4ccccc4)cc3)C(=O)O2)CC1`: the ED50 in the assay with Cavia porcellus [2] is > 1 mg/kg.

With `CCOC(=O)CN1CCN(C[C@@H]2CN(c3ccc(C(=N)NC(=O)OCc4ccccc4)cc3)C(=O)O2)CC1`, the 50% effective dose (ED50) with Monkey [3] is > 1 mg/kg; with Cavia porcellus [2], < 1 mg/kg.

With `CC(C)(C)OC(=O)CN1CCN(C[C@@H]2CN(c3ccc(C(=N)NC(=O)c4ccccc4)cc3)C(=O)O2)CC1`, the ED50 in the assay with Cavia porcellus [1] is 0.4 mg/kg; with Monkey [3] it was > 1 mg/kg; in the assay with Cavia porcellus [2], 1 mg/kg.

For the molecule `CCOC(=O)CC1(O)CCN(CC2CN(c3ccc(C(=N)NC(=O)c4ccccc4)cc3)C(=O)O2)CC1` (configuration not stated), the ED50 in the assay on Cavia porcellus [2] amounted to 3 mg/kg.

In the assay on Cavia porcellus [2], `CCOC(=O)CC1CCN(CC2CN(c3ccc(C(=N)NC(=O)c4ccccc4)cc3)C(=O)O2)CC1` (configuration not stated) yielded an ED50 of 3 mg/kg.

For `CCOC(=O)CN1CCN(C[C@H]2CN(c3ccc(C(=N)NC(=O)c4ccccc4)cc3)C(=O)O2)CC1`, in the assay with Cavia porcellus [2], the ED50 was > 1 mg/kg.

With `CC(=O)O/N=C(/N)c1ccc(N2C[C@@H](CN3CCN(CC(=O)O)CC3)OC2=O)cc1`, the median effective dose (ED50) in the assay on Cavia porcellus [2] was > 10 mg/kg.

Turning to `CCOC(=O)CN1CCN(C[C@@H]2CN(c3ccc(C(=N)NC(=O)c4ccc(OC)cc4)cc3)C(=O)O2)CC1`, the 50% effective dose (ED50) was > 1 mg/kg with Monkey [3] and < 1 mg/kg with Cavia porcellus [2].
